The source of these data is US20090203707A1, “METHODS FOR TREATING PAIN” (priority 2008, published 2009).

The assay deals with SCN9A (Nav1.7) Na+ channel, α- and β1 subunits, in HEK293 cells (Homo sapiens, UniProt Q15858). Put plainly: Whole-cell patch clamp, Nav1.7 peak INa in HEK293 cells (Example 1). The conditions noted are these: 0.1 Hz; for Mean amplitude of Nav1.7 peak INa, fraction of control: −100 mV to 0 mV, 50 msec; for p of logistic fit (Hill coefficient nH) for block of Nav1.7 peak INa / x0 of logistic fit (IC50) for block of Nav1.7 peak INa: holding −100 mV to 0 mV.
Chain of SCN9A (Nav1.7) Na+ channel, α- and β1 subunits, in HEK293 cells (Q15858 whole entry): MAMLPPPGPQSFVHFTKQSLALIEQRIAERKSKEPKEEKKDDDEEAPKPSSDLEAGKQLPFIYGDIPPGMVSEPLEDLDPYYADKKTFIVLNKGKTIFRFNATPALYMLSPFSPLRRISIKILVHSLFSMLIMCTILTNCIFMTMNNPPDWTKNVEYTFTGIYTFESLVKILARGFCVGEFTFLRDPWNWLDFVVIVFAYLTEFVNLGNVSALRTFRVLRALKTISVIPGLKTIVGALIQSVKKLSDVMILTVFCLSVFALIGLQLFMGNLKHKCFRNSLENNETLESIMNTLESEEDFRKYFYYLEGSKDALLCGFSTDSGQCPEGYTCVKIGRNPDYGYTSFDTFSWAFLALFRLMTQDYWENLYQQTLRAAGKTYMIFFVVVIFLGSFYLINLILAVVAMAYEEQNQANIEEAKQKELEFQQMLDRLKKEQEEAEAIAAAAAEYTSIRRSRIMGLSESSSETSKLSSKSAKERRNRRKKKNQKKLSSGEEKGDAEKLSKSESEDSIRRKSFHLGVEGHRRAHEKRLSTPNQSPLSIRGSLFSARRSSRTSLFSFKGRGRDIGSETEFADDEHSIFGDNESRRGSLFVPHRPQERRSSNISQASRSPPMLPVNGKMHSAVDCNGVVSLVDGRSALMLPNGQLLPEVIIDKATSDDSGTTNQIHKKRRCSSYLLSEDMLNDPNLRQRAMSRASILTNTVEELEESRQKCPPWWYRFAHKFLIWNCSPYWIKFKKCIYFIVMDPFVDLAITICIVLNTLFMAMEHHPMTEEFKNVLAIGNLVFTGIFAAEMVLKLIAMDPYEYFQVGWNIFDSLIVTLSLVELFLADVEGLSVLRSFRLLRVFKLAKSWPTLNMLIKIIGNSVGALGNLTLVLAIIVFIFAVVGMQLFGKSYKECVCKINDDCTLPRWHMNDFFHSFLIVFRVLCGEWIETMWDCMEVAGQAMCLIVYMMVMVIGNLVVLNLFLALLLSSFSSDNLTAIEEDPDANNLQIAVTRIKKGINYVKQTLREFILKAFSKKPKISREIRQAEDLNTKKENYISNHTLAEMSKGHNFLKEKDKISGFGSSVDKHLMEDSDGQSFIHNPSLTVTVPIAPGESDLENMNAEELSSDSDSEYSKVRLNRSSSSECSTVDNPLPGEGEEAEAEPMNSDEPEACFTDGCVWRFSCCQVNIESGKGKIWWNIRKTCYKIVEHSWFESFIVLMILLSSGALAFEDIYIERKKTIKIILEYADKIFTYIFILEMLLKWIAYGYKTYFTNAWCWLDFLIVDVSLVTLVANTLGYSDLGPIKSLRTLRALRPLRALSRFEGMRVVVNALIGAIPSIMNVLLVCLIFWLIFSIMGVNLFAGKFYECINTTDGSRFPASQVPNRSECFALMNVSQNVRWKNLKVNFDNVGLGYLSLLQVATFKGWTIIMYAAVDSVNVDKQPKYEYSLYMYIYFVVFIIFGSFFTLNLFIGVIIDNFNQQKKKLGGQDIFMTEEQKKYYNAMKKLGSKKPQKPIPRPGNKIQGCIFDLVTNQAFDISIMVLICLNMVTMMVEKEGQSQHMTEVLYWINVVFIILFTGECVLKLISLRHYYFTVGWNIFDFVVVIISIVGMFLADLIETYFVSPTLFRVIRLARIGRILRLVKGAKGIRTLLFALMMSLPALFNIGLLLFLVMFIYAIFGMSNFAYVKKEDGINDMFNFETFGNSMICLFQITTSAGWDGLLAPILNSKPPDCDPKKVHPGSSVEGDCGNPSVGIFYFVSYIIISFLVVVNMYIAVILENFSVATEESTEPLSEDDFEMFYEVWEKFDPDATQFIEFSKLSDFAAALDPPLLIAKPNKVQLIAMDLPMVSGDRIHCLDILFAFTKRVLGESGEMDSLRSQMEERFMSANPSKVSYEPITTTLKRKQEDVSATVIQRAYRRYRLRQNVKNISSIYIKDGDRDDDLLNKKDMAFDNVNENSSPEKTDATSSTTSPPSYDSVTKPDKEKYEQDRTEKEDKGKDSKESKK
Chain of SCN9A (Nav1.7) Na+ channel, α- and β1 subunits, in HEK293 cells (Q07699 19-218 partner): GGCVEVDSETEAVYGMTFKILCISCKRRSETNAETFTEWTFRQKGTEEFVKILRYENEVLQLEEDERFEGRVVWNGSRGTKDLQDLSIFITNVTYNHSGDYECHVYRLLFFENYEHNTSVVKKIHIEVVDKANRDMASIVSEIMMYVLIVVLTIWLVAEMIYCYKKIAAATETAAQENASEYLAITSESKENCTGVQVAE

For the compound `COc1ccccc1OC[C@@H](O)CN1CCN(CC(=O)Nc2c(C)cccc2C)CC1` [S-Ranolazine, (S)-(−)-N-(2,6-dimethylphenyl)-4-[2-hydroxy-3-(2-methoxyphenoxy)-propyl]-1-piperazineacetamide], the “p of logistic fit (Hill coefficient nH) for block of Nav1.7 peak INa” value is recorded as 0.9409 and the “x0 of logistic fit (IC50) for block of Nav1.7 peak INa” value is given as 9.433 μM. Also, the “Mean amplitude of Nav1.7 peak INa, fraction of control” value (shortened to “Mean amplitude … fraction of control”) (1 μM) worked out at 0.8788. For the same compound, the “Mean amplitude … fraction of control” value (3 μM) stood at 0.7285. In addition, the “Mean amplitude … fraction of control” value (10 μM) came to 0.5358. Further, the “Mean amplitude … fraction of control” value (30 μM) amounted to 0.2883. For the same compound, the “Mean amplitude … fraction of control” value (100 μM) is listed as 0.06853.

Regarding `COc1ccccc1OC[C@H](O)CN1CCN(CC(=O)Nc2c(C)cccc2C)CC1` [R-Ranolazine, (R)-(+)-N-(2,6-dimethylphenyl)-4-[2-hydroxy-3-(2-methoxyphenoxy)-propyl]-1-piperazineacetamide], the “p of logistic fit (Hill coefficient nH) for block of Nav1.7 peak INa” value is given as 1.212 and the “x0 of logistic fit (IC50) for block of Nav1.7 peak INa” value was found to be 11.33 μM. The “Mean amplitude … fraction of control” value (1 μM) was 0.9252. For the setting “3 μM”, the “Mean amplitude … fraction of control” value is 0.8286. For the same compound, the “Mean amplitude … fraction of control” value (10 μM) came to 0.6336. Moreover, the “Mean amplitude … fraction of control” value (30 μM) was determined as 0.2387. Further, under “100 μM”, the “Mean amplitude … fraction of control” value worked out at 0.07855.
